# Earlier results in patent US20080038318A1, “Composition; Use Of A Composition And A Method For Treating Obesity” (priority 2004, published 2008).
# System: normal and obese volunteers
# Settings: in vivo
smiles,measurement,value
CCCCCCCCCCC[C@@H](C[C@@H]1OC(=O)[C@H]1CCCCCC)OC(=O)[C@H](CC(C)C)NC=O [orlistat],reduction of the absorption of triacylglycerols,30%
